Laboratory results as given in PMC7200681, “The calcitonin-like system is an ancient regulatory system of biomineralization” (Scientific Reports, 2020).
Bridge positions count the residues as written; N and C are the ends.

Columns and labels:
mussel CALCRIa = assay: Calcium mobilization assay (apoaequorin bioluminescence), dose-response, HEK 293 cells expressing mussel CALCRIa; type: cell-based, Mytilus galloprovincialis; settings: calcium mobilization, HEK 293/apoaequorin, 1 μM to 0.01 nM
Description: (§1) The complete sequence of the Mediterranean mussel CALCRIa was amplified using specific primers (Table 1) from cDNA of a tissue mixture (mantle, adductor muscle, gills, gonads) using a proofreading DNA polymerase (iProof BIORAD, Portugal) and cloned into the pGEMT-easy vector (PROMEGA, Spain). The Mediterranean mussel CALCRIIa transcript that was found in the mantle transcriptome was incomplete and lacked the N-terminus (by comparisons with the hard-shelled mussel homologue) and so the remaining sequence (from 1–393 bp) was deduced from the hard-shelled mussel homologue receptor and the receptor was synthesised and supplied by GENESCRIPT (USA). The complete transcripts for mussel CALCRIc, CALCRIIb and CALCRIIc were only found in the hard-shelled mussel mantle transcriptome and homologues were only found in the Mediterranean mussel genome as they were absent from the species mantle transcriptome and so they were also synthesised and supplied by GENESCRIPT (USA) using the hard-shelled mussel receptor sequences as template. The mussel CALCRIb transcript was incomplete and lacked both N and C-terminal regions and it was not possible to obtain the complete transcript either by searching both mussels mantle transcriptomes or the Mediterranean mussel genome and so it was not produced. All synthetized receptors were provided in the pUC57 cloning vector by the company and receptor codon usage was optimized to favour a high level of expression in mammalian cells.
(§2) Mammalian cell cultures and transfections followed the methodology described by[89],[90]. Mammalian HEK293 cells (ECACC, UK) were used and they were maintained in complete Dulbecco’s modified Eagle’s medium (DMEM, 4.5 g/l glucose, 110 mg/l sodium pyruvate and L-glutamine, SIGMA-ALDRICH, Spain) supplemented with 10% sterile foetal bovine serum (FBS), 0.1% penicillin: streptomycin antibiotic mix (10,000 U:10 mg/ml, Sigma) and 250 μg /ml sterile filtered 1:100 amphotericin B solution (SIGMA-ALDRICH) in a humid 5% CO2 incubator (HERAEUS, Portugal) at 37 °C. On the day prior to transfection, 2–3 × 10^5 HEK293 cells were seeded on 6 well plates (SARSTEDT, Portugal) and transfected with Fugene HD transfection reagent (2 DNA: 4 Fugene ratio, PROMEGA) following the manufacturer’s protocol. Seventy-two hours after transfection, 800 μg/ml of the antibiotic Geneticin (SIGMA-ALDRICH) was added to the medium to select and isolate stable receptor cell lines. Cell recovery was monitored daily and the medium was changed every two days until no cell death was observed. […]
(§3) HEK293 cells stably expressing five mussel receptors (CALCRIa, CALCRIc, CALCRIIa, CALCRIIb and CALCRIIc) were stimulated with the two mussel peptides and the vertebrate (human and salmon) calcitonins. Receptor activation was assessed in vitro by measuring two intracellular signalling pathways: a) production of cAMP and b) mobilization of calcium (Ca^2+). The cellular response was initially assessed using 10 μM of each peptide. […]
(§4) Stable cell lines expressing the mussel receptors were transiently co-transfected with the mitochondrial targeted apo-aequorin protein cloned in pcDNA3.1. Two days after transfection cells were washed, counted and resuspended in 1 ml of DMEM /F12 Ham (without phenol red)/0.1% BSA supplemented with 2 µM coelenterazine (SIGMA-ALDRICH). […] The injector system of the Biotek Synergy 4 microplate reader (USA) was used to inject 50 µl of the cell suspensions into wells containing 50 μl of the diluted peptide in DMEM / F12 Ham / 0.1% BSA. […]

mussel CALCRIIa = assay: Calcium mobilization assay (apoaequorin bioluminescence), dose-response, HEK 293 cells expressing mussel CALCRIIa; type: cell-based, Mytilus galloprovincialis; settings: calcium mobilization, HEK 293/apoaequorin, 1 μM to 0.01 nM
Description: as §1, §2, §3, §4

[1] = test system: alpha-carbonic anhydrase (CA) esterase activity in mussel mantle edge; assay: Esterase (carbonic anhydrase) activity in mantle after ex-vivo incubation; set-up: species or system Mytilus galloprovincialis; settings: after exposure to CALCIIa 10 μM or ouabain 2 mM; 4-Nitrophenyl acetate substrate; n = 6
Procedure: (§5) (A) Esterase activity and (B) Acid phosphatase activity. Enzyme activity was quantified in protein extracts from the mantle of control or challenged samples that were incubated with the mussel CALCIIa peptide. Values represent the mean ± SEM (CA, n = 6 and TRAP, n = 10) performed in duplicate. Prism GraphPad v5 software was used to assess the significance of the differences between the groups using One-way Anova and Tukey’s multiple comparison test. […] C - control; P - peptide (10 μM); O - ouabain (2 mM), OP - ouabain (2 mM) and peptide (10 μM); PreOP - pre stimulation for 1 hour with the peptide and 4 hours incubation with OP.
(§6) The posterior mantle edge region of the Mediterranean mussel was collected and washed in culture medium. The composition of the culture medium was as described in[91] […] The culture medium was supplemented with heat inactivated 2% FBS (SIGMA-ALDRICH), 0.1% penicillin: streptomycin antibiotic mix (10.000 U:10 mg/ml, SIGMA-ALDRICH) and 250 μg/ml sterile filtered 1:100 amphotericin B solution (Sigma-Aldrich). The posterior mantle edge from mussels was collected into culture medium and cut into fragments of approximately 1–2 mm in length. […]
Esterase activity in the mussel posterior mantle edge (n = 6/experimental group) was quantified using a colorimetric assay that measures the conversion of the substrate 4-Nitrophenyl acetate to p-nitrophenolate[92]. […]

[2] = test system: acid phosphatase (AP) activity in mussel mantle edge; assay: Acid phosphatase (TRAP) activity in mantle after ex-vivo incubation; set-up: species or system Mytilus galloprovincialis; settings: after exposure to CALCIIa 10 μM or ouabain 2 mM; TRAP assay, pNPP, pH 5.3; p < 0.05
Procedure: as §5, §6
Acid phosphatase activity of the mantle protein extracts (n = 6/ group) was determined using 96 well-plates (GREINER, Germany) and a tartrate resistant acid phosphatase (TRAP) assay as described in[93].

Substance: H-CTWGGGMSDEMCSTVDIDEIQRSFQVIHDRNSP-NH2 (disulfide 1-12 (inferred)) [CALCIIa, Mediterranean mussel calcitonin-like mature peptide, 33 aa, synthesized with disulphide bond and C-terminal amidation]
- Activation of mussel CALCRIa in dose-response analysis (in words) (mussel CALCRIa): not activated
- Activation of mussel CALCRIIa in dose-response analysis (in words) (mussel CALCRIIa): not activated
- CA esterase activity in mantle edge (in words) [1]: No change
- Acid phosphatase (AP) activity in mantle edge compared to control (in words) [2]: significantly decreased
